TGI data for eight compounds are collected here from PubChem BioAssay (NCI).

Common to all, as to test: inhibition of tumour cell growth, NCI panel, 48 h
Assay [1] has as its system SR leukemia.
Assay [2] has as its system MDA-MB-231 breast.
Assay [3] concerns HCT-116 colon.
The test system of assay [4] is RXF 393 renal.
The test system of assay [5] is MALME-3M melanoma.
The subject of assay [6] is SK-MEL-28 melanoma.
In assay [7] the test system is HT29 colon.
The subject of assay [8] is IGROV1 ovarian.
Assay [9] has as its system NCI-H522 lung.
Assay [10] deals with TK-10 renal.
In assay [11] the test system is HOP-92 NSCLC.
Assay [12] deals with SNB-75 CNS.
Assay [13] concerns SF-539 CNS.
Assay [14] relates to T-47D breast.
Assay [15] concerns A549 NSCLC.
The test system of assay [16] is MCF7 breast.
Assay [17] has as its system OVCAR-5 ovarian.
The test system of assay [18] is LOX IMVI melanoma.
The subject of assay [19] is HCT-15 colon.
Assay [20] concerns BT-549 breast.

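Growth conditions: 96-well plates. Treatment: test compound, 48 hours, 5 concentrations. Analysis: linear interpolation between bracketing concentrations; unreached endpoints set to highest concentration. TGI marks complete inhibition of growth.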 A value given as a limit tells only on which side of the number the result lay.

On to `CCOC(=O)C(=CNC(=S)Nc1c(CC)cccc1CC)C(=O)OCC`, for which the TGI in [1], in assay [2], in [3], in assay [4], in assay [5] and in [6] was > 100 µM each time. For the same compound, the TGI is > 100 µM in assay [7]; > 100 µM in assay [8]; > 100 µM in assay [9]; > 100 µM in [10]; > 100 µM in [11]; 92.6 µM in assay [12]. The TGI in assay [13], in assay [14], in [15], in assay [16], in [17] and in [18] was > 100 µM in each case.

As for `O=C1NC(=NC2CCCCC2)C2(CCN(CCCC3(c4ccc(F)cc4)OCCO3)CC2)N1c1ccccc1`, the TGI in assay [1] was determined as 31.4 µM; in assay [3], 24.7 µM; in assay [4], 31.1 µM; in assay [5] it was 30.5 µM; in [6] it was 35.6 µM; in [7] it was 33.1 µM. Also, the TGI in assay [9] came to 34.1 µM; in [10], 32.7 µM; in [12] it was 29.8 µM; in assay [13] it was 30.7 µM; in assay [14] it was 53.2 µM; in assay [19], 36.9 µM. In addition, the TGI in [20] amounted to 18.5 µM; in [15], 46.3 µM; in [16], 48.3 µM; in [17], 30.7 µM; in [18], 39 µM.

As for `O=[N+]([O-])/C=C/COCc1cc2c(cc1Br)OCO2`, the TGI stood at 54.1 µM in assay [1]; 33 µM in assay [2]; 34.1 µM in assay [3]; 30.9 µM in [4]; 25.4 µM in assay [6]; 45.4 µM in [7]. Further, the TGI is > 100 µM in [8]; 50.7 µM in [9]; 34.8 µM in assay [10]; 65.3 µM in assay [11]; 31.7 µM in assay [12]; 63.6 µM in [13]. For the same compound, the TGI in assay [14] is 41.6 µM; in assay [19], 34.3 µM; in assay [15] it was 38.5 µM; in [16] it was 33.5 µM; in assay [17] it was 34.3 µM; in assay [18], > 100 µM.

For `CC(=O)OCC1OC(n2c(C)c(C(C)=O)c(-c3cccc4ccccc34)c(C#N)c2=S)C(OC(C)=O)C(OC(C)=O)C1OC(C)=O` (stereo not drawn), the TGI in [1], in [2], in assay [3], in assay [4], in [5] and in assay [6] was > 100 µM throughout. Further, the TGI in [7], in [8], in [9], in assay [10], in assay [11] and in assay [12] was > 100 µM throughout. The TGI in assay [13], in assay [14], in assay [19], in assay [15], in assay [16] and in [17] was > 100 µM in each case. In [18], the TGI was > 100 µM.

Consider `COc1ccc2c(c1)CCCN1Cc3ccccc3CC21` (stereo not drawn), for which the TGI in assay [2], in [3], in assay [4], in [5], in assay [6] and in [7] was > 100 µM throughout. Moreover, the TGI in assay [8], in [9], in assay [10], in assay [11], in [12] and in assay [13] was > 100 µM in each case. Moreover, the TGI in assay [14], in assay [19], in assay [20], in [15], in [16] and in [17] was > 100 µM throughout. Besides, the TGI in assay [18] is > 100 µM.

On to `COc1cc(C2c3cc4c(cc3OC(NCc3ccccc3)C2C)OCO4)cc(OC)c1OC` (stereo not drawn), for which the TGI in assay [2] is 2.06 µM; in [5], 0.671 µM; in assay [6] it was > 100 µM; in assay [7], 3.32 µM; in assay [8] it was > 36.5 µM; in [9], 4.02 µM. The TGI in assay [10] was > 100 µM; in [11] it was 20.3 µM; in [13], 0.817 µM; in assay [19], > 44.4 µM; in assay [20], 16.4 µM; in assay [15] it was > 94 µM. The TGI in assay [16] is 48.7 µM; in assay [17], > 100 µM; in assay [18] it was 17.2 µM.

For `O=C(NCCN1CCCC1)c1cn2c(ccc3sc4ccccc4c(=O)c32)n1`, the TGI in assay [1] was determined as 8.79 µM; in assay [2], 7.52 µM; in [3], 8.57 µM; in assay [4], 24.6 µM; in [5], 31.8 µM; in assay [6] it was 33.8 µM. In addition, the TGI in [7] came out at 7.67 µM; in [8], 25 µM; in [9], 27.4 µM; in assay [10] it was 25.7 µM; in assay [11], 30.1 µM; in [12], 34.1 µM. Also, the TGI in [13] turned out to be 30.2 µM; in assay [14] it was 38.1 µM; in [19], 24.4 µM; in assay [20], 35.6 µM; in assay [15], 24.5 µM; in [17] it was 24.2 µM. The TGI in [18] came to 3.4 µM.

As for `CSC(=S)OC1C(CO[Si](C)(C)C(C)(C)C)OC2OC(C)(C)OC21` (stereo not drawn), the TGI is 30.4 µM in assay [1]; 33.9 µM in [2]; 36.6 µM in [3]; 37.5 µM in assay [4]; 32.4 µM in [5]; > 100 µM in assay [6]. In addition, the TGI in assay [7] was 24.7 µM; in assay [8] it was 53.6 µM; in [9], 31.3 µM; in [10], 49 µM; in assay [12], > 100 µM; in [13], 43.5 µM. In addition, the TGI turned out to be 35.3 µM in [19]; 67 µM in [20]; 78.6 µM in assay [15]; 29.8 µM in assay [16]; 37.6 µM in assay [17]; 32 µM in [18].
